Measured values from PubChem BioAssay (NCI).
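All cell lines were grown in 96-well plates and treated with compound for 48 hours. GI50: concentration for 50% inhibition of growth. TGI denotes the concentration required for complete inhibition of growth.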

Experiments:
Test in all cases: NCI anticancer screen, dose series, 48 h
MDA-MB-231 breast = system: MDA-MB-231 breast
SK-OV-3 ovarian = system: SK-OV-3 ovarian
SK-MEL-2 melanoma = system: SK-MEL-2 melanoma
SNB-19 CNS = system: SNB-19 CNS
786-0 renal = system: 786-0 renal
HL-60(TB) leukemia = system: HL-60(TB) leukemia
M14 melanoma = system: M14 melanoma
SR leukemia = system: SR leukemia
MOLT-4 leukemia = system: MOLT-4 leukemia
MCF7 breast = system: MCF7 breast
KM12 colon = system: KM12 colon
CCRF-CEM leukemia = system: CCRF-CEM leukemia
PC-3 prostate = system: PC-3 prostate
SK-MEL-28 melanoma = system: SK-MEL-28 melanoma
EKVX NSCLC = system: EKVX NSCLC
HCT-15 colon = system: HCT-15 colon
MALME-3M melanoma = system: MALME-3M melanoma
NCI-H23 lung = system: NCI-H23 lung
HCC-2998 colon = system: HCC-2998 colon
OVCAR-4 ovarian = system: OVCAR-4 ovarian
K-562 leukemia = system: K-562 leukemia
RPMI-8226 leukemia = system: RPMI-8226 leukemia
CAKI-1 renal = system: CAKI-1 renal
NCI-H226 lung = system: NCI-H226 lung
LOX IMVI melanoma = system: LOX IMVI melanoma
UACC-62 melanoma = system: UACC-62 melanoma
ACHN renal = system: ACHN renal
SF-295 CNS = system: SF-295 CNS
HOP-92 NSCLC = system: HOP-92 NSCLC
U251 CNS = system: U251 CNS
A549 NSCLC = system: A549 NSCLC
SNB-75 CNS = system: SNB-75 CNS
OVCAR-8 ovarian = system: OVCAR-8 ovarian
A498 renal = system: A498 renal
RXF 393 renal = system: RXF 393 renal
SF-539 CNS = system: SF-539 CNS
T-47D breast = system: T-47D breast
MDA-MB-435 = system: MDA-MB-435
OVCAR-5 ovarian = system: OVCAR-5 ovarian
NCI-H460 lung = system: NCI-H460 lung
COLO 205 colon = system: COLO 205 colon
DU-145 prostate = system: DU-145 prostate
HOP-62 NSCLC = system: HOP-62 NSCLC
SN12C renal = system: SN12C renal
HCT-116 colon = system: HCT-116 colon
TK-10 renal = system: TK-10 renal
UACC-257 melanoma = system: UACC-257 melanoma
NCI/ADR-RES ovarian = system: NCI/ADR-RES ovarian
IGROV1 ovarian = system: IGROV1 ovarian
HS 578T breast = system: HS 578T breast
HT29 colon = system: HT29 colon
NCI-H522 lung = system: NCI-H522 lung
OVCAR-3 ovarian = system: OVCAR-3 ovarian
SK-MEL-5 melanoma = system: SK-MEL-5 melanoma
UO-31 renal = system: UO-31 renal
SW-620 colon = system: SW-620 colon
SF-268 CNS = system: SF-268 CNS
BT-549 breast = system: BT-549 breast

## CN1CCC(n2cc(Nc3ncc4c(=O)n(-c5c(Cl)cccc5Cl)cc(Br)c4n3)cn2)CC1
MDA-MB-231 breast
  GI50: 821 nM
  TGI: 13400 nM
SK-OV-3 ovarian
  GI50: 275 nM
  TGI: 13900 nM
SK-MEL-2 melanoma
  GI50: 192 nM
  TGI: 1730 nM
SNB-19 CNS
  GI50: 693 nM
  TGI: 13600 nM
786-0 renal
  GI50: 241 nM
  TGI: 8320 nM
HL-60(TB) leukemia
  GI50: 160 nM
  TGI: 853 nM
M14 melanoma
  GI50: 65 nM
  TGI: 13400 nM
SR leukemia
  GI50: 42.5 nM
  TGI: 1610 nM
MOLT-4 leukemia
  GI50: 64.6 nM
  TGI: 4260 nM
MCF7 breast
  GI50: 181 nM
  TGI: 7250 nM
KM12 colon
  GI50: 551 nM
  TGI: 16300 nM
CCRF-CEM leukemia
  GI50: 75 nM
  TGI: 6360 nM
PC-3 prostate
  GI50: 1720 nM
  TGI: 16400 nM
SK-MEL-28 melanoma
  GI50: 4100 nM
  TGI: 18900 nM
EKVX NSCLC
  GI50: 2770 nM
  TGI: 18000 nM
HCT-15 colon
  GI50: 368 nM
  TGI: 11300 nM
MALME-3M melanoma
  GI50: 796 nM
  TGI: 18100 nM
NCI-H23 lung
  GI50: 65.1 nM
  TGI: 594 nM
HCC-2998 colon
  GI50: 740 nM
  TGI: 12500 nM
OVCAR-4 ovarian
  GI50: 627 nM
  TGI: 11300 nM
K-562 leukemia
  GI50: 178 nM
  TGI: 12500 nM
RPMI-8226 leukemia
  GI50: 1150 nM
  TGI: 10300 nM
CAKI-1 renal
  GI50: 98.4 nM
  TGI: 11500 nM
NCI-H226 lung
  GI50: 1290 nM
  TGI: 11400 nM
LOX IMVI melanoma
  GI50: 480 nM
  TGI: 2920 nM
UACC-62 melanoma
  GI50: 901 nM
  TGI: 22000 nM
ACHN renal
  GI50: 40.2 nM
  TGI: 11900 nM
SF-295 CNS
  GI50: 939 nM
  TGI: 15500 nM
HOP-92 NSCLC
  GI50: 102 nM
  TGI: 3730 nM
U251 CNS
  GI50: 787 nM
  TGI: 11200 nM
A549 NSCLC
  GI50: 2320 nM
  TGI: 11500 nM
SNB-75 CNS
  GI50: 611 nM
  TGI: 11300 nM
OVCAR-8 ovarian
  GI50: 268 nM
  TGI: 5020 nM
A498 renal
  GI50: 62.8 nM
  TGI: 3190 nM
RXF 393 renal
  GI50: 80.8 nM
  TGI: 585 nM
SF-539 CNS
  GI50: 33.7 nM
  TGI: 166 nM
T-47D breast
  GI50: 887 nM
  TGI: 15500 nM
MDA-MB-435
  GI50: 148 nM
  TGI: 10300 nM
OVCAR-5 ovarian
  GI50: 1360 nM
  TGI: 12300 nM
NCI-H460 lung
  GI50: 1350 nM
  TGI: 8910 nM
COLO 205 colon
  GI50: 1140 nM
  TGI: 8530 nM
DU-145 prostate
  GI50: 1300 nM
  TGI: 14800 nM
HOP-62 NSCLC
  GI50: 846 nM
  TGI: 13300 nM
SN12C renal
  GI50: 235 nM
  TGI: 11400 nM
HCT-116 colon
  GI50: 585 nM
  TGI: 10400 nM
TK-10 renal
  GI50: 178 nM
  TGI: 17400 nM
UACC-257 melanoma
  GI50: 1270 nM
  TGI: 9280 nM
NCI/ADR-RES ovarian
  GI50: 288 nM
  TGI: 15300 nM
IGROV1 ovarian
  GI50: 110 nM
  TGI: 7320 nM
HS 578T breast
  GI50: 538 nM
  TGI: 16100 nM
HT29 colon
  GI50: 142 nM
  TGI: 2620 nM
NCI-H522 lung
  GI50: 424 nM
  TGI: 2650 nM
OVCAR-3 ovarian
  GI50: 223 nM
  TGI: 3470 nM
SK-MEL-5 melanoma
  GI50: 419 nM
  TGI: 17500 nM
UO-31 renal
  GI50: 70.8 nM
  TGI: 11500 nM
SW-620 colon
  GI50: 1200 nM
  TGI: 11800 nM
SF-268 CNS
  GI50: 2160 nM
  TGI: 16500 nM
BT-549 breast
  GI50: 399 nM
  TGI: 4640 nM
